{"source": "patent US20150284683A1", "about": "“METHOD, COMBINATION AND/OR COMPOSITION FOR INDUCING CARDIOMYOCYTE DIFFERENTATION” (SINGAPORE HEALTH SERVICES LTD, priority 2012, published 2015)", "format_in_all_cases": "cell-based, human", "key": {"hiPSC C2 cell line": {"test_system": "hiPSC C2 cell line", "experiment": "Embryoid body (EB) cardiac differentiation, beating EBs, hiPSC C2", "description": "(§1) Human ES cells (H9; Wicell, USA) and iPS cells (MSnviPSNF2 (C2) and MSnviPSNF3 (C3); both described in Mehta et al., 2011) were maintained on 1% matrigel (BD Biosciences, CA, USA) and grown in chemically defined mTeSR1 medium (Stem Cell Technologies, VA, Canada). Differentiated areas (<10%) were manually removed periodically with a scraper and prior to passaging. Pluripotent stem cells were subsequently washed with DMEM-F12 (Invitrogen, CA, USA) and incubated with 1 mg/ml dispase (Stem Cell Technologies, VA, Canada) for 5-7 minutes. Subsequently, cells colonies were washed using DMEM-F12 and carefully cut into small clumps of approximately 50-70 μm in size before being scrapped from the surface of the culture dishes. […]\n(§2) Subsequently, addition of different small molecules (components) were carried out at various stages of differentiation, either alone or in combination with at least one other component (FIG. 1): SB 203580 daily from day 2 through to day 8 from EB induction; Wnt modulator IWP4 daily from day 4 through to day 8 from EB induction, CSA daily from day 4 through to day 8 from EB induction, and ROS activator H2O2 on day 8 (15 min prior to plating). […] All EBs were evaluated morphologically under the microscope at 4× magnification for 10-15 seconds. […]"}, "hiPSC C3 cell line": {"test_system": "hiPSC C3 cell line", "experiment": "Embryoid body (EB) cardiac differentiation, beating EBs, hiPSC C3", "description": "as §1, §2"}, "hESC (H9) cell line": {"test_system": "hESC (H9) cell line", "experiment": "Embryoid body (EB) cardiac differentiation, beating EBs, hESC H9", "conditions": "SB203580 5 μM day 2 to day 8", "description": "as §1, §2"}, "H3-Nkx2.5-GFP line [1]": {"test_system": "H3-Nkx2.5-GFP line", "experiment": "Spin EB contraction during protocol standardization (Example 2)", "conditions": "only 10 uM SB203580; EBs of 2,500 to 7,500 cells", "description": "Briefly, hiPSC/hESC lines were pre-treated with 10 μM Y27632 (Stem Cell Technologies, VA, Canada) for 4 h before dissociating them to single cells with. Accutase (Stem Cell Technologies, VA, Canada). Cells were aggregated in spin EBs of 5000 cells/EB in AggreWell™ 800 (Stem Cell Technologies, VA, Canada) in media A (mTesR1: DMEM-F12-B27 (1:1) with 4 mg/mL PVA) with Ascorbic acid (284 μM) and BMP4 ([…]) and centrifuged at 300 g for 5 min and incubated overnight. […] […] […] EBs were plated on day 8 in EB2 medium (DMEM-F12 with 2% FBS) on 0.1% gelatin coated dishes. Beating areas were clearly observed between day 10-14 depending on different cell lines. Beating areas were manually dissected out after day 14 of differentiation and utilized for all experiments.\nTo maintain consistency in differentiation efficiency, an EB based protocol was utilised to recapitulate early cardiac development that hinges on stage-specific activation and inhibition′ of Wnt/β-catenin along with BMP modulation. All initial experiments were performed using H3-Nkx2.5-GFP line to standardize the protocol. Spin EBs of different sizes (1,000, 2,500, 5,000, 7,500 and 10,000 cells/EB) were made and it was observed that EBs of 2,500 to 7,500 cells gave contracting cardiomyocytes by day 14-15 using only 10 uM SB203580 (FIG. 11B; Non-treated), with highest efficiencies with 5,000 cell EBs. Next. […]"}, "H3-Nkx2.5-GFP line [2]": {"test_system": "H3-Nkx2.5-GFP line", "experiment": "Real-time PCR gene expression during standardization of differentiation (Example 2)", "conditions": "Treated S1+S2+VEGF", "description": "For real-time reverse-transcription polymerase chain reaction (qRT-PCR) analysis, RNA was isolated with the RNeasy kit (Qiagen GmbH, Hilden, Germany). One μg of total RNA was converted to complementary DNA. by Superscript III first-strand synthesis system (Invitrogen, CA, USA). cDNA template (5 ng) was used from each sample and SYBR green real-time PCR studies were performed using Quantifast kit (Qiagen GmbH, Hilden, Germany) and primer (Supplementary table 1) as per the kit instructions. Samples were cycled with RotorGene Q (Qiagen GmbH, Hilden, Germany) as follows: 5 minutes at 95° C., followed by 40 cycles of 10 seconds at 95° C. and 30 second extension at 60° C. All experiments were performed in triplicates. Relative quantification was calculated according to the ΔΔCt method for quantitative real-time PCR (using an endogenous control gene, GAPDH). For each gene, the expression at a specific day was then normalized by its baseline values. Heatmaps were generated from Ct values using Genesis software.\nTo maintain consistency in differentiation efficiency, an EB based protocol was utilised to recapitulate early cardiac development that hinges on stage-specific activation and inhibition′ of Wnt/β-catenin along with BMP modulation. All initial experiments were performed using H3-Nkx2.5-GFP line to standardize the protocol. […]"}, "[3]": {"conditions": "titration 1, 3, 5, 7 μM with SB203580 5 μM and CSA 3 μg/ml"}, "[4]": {"conditions": "SB203580 5 μM day 2-8, without or with CSA 3 μg/ml day 4-8, 21 days"}}, "data": [{"compound": "COc1ccccc1-n1c(SCC(=O)Nc2nc3ccc(C)cc3s2)nc2c(c1=O)SCC2", "note": "[IWP4, 2-(3,4,6,7-tetrahydro-3-(2-methoxyphenyl)-4-oxothieno[3,2-d]pyrimidin-2-ylthio)-N-(6-methylbenzo[d]thiazol-2-yl)acetamide]", "values": [{"measurement": "IWP4 concentration at which induction of contracting loci peaked", "setting": "hiPSC C2 cell line; [3]", "result": 5, "unit": "µM"}, {"measurement": "IWP4 concentration at which induction of contracting loci peaked", "setting": "hiPSC C3 cell line; [3]", "result": 5, "unit": "µM"}]}, {"compound": "C[S+]([O-])c1ccc(-c2nc(-c3ccc(F)cc3)c(-c3ccncc3)[nH]2)cc1", "note": "(centres unmarked) [SB203580, 4-[4-(4-fluorophenyl)-2-(4-methylsulfinylphenyl)-1H-imidazol-5-yl]pyridine]", "values": [{"measurement": "day spontaneous beating clusters were first observed", "setting": "hESC (H9) cell line", "result": 14, "unit": "days"}, {"measurement": "percentage of total EBs plated found to be beating", "setting": "hESC (H9) cell line; after 21 days", "result": 16.6, "unit": "%"}, {"measurement": "cardiac-inducing effect", "setting": "hiPSC C2 cell line; [4]", "result": "no cardiac-inducing effect"}, {"measurement": "cardiac-inducing effect", "setting": "hiPSC C3 cell line; [4]", "result": "no cardiac-inducing effect"}, {"measurement": "day by which EBs gave contracting cardiomyocytes", "setting": "H3-Nkx2.5-GFP line [1]", "result": "14 to 15", "unit": "days"}]}, {"compound": "VEGF", "values": [{"measurement": "gene expression change", "setting": "H3-Nkx2.5-GFP line [2]", "result": "substantially increased gene expression levels of Wnt11"}]}]}
